# Patent US20240025880A1 (CHIESI FARMACEUTICI S.P.A., priority 2020, published 2024)
# Molecular target: T1, h P2X3 (Homo sapiens, UniProt P56373)
# T1 sequence (P56373 1-397): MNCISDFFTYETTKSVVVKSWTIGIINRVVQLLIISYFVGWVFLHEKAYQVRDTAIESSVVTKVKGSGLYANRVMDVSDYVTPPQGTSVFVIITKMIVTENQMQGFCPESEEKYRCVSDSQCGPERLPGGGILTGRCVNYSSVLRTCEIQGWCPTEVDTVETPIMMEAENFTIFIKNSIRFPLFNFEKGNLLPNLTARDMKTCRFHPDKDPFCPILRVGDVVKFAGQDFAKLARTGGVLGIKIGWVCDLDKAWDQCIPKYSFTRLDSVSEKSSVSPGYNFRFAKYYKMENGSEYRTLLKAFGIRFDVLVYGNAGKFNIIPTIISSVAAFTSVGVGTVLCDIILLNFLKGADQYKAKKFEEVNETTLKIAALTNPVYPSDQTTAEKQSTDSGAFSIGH
# Test: In vitro electrophysiology assay for P2X3 (automated whole-cell patch clamp, α,β-MeATP agonist)
# Type: cell-based
# Conditions: Table 2; 800 nM α,β-MeATP, peak current; read-out: h P2X3 (pIC50 range of activity) (converted)
# Description: In Vitro Electrophysiology Assay for P2X3
# Cells expressing P2X3 receptors were grown according to standard practice and maintained at 37° C. in a 5% humidified CO2 atmosphere. The cells were seeded into T175 flask 2 days prior to the day of the assay and dissociated from the flasks using TrypLE when grown to confluence of 80-90%. The dissociated cells were resuspended in serum free media at a cell density of 3×10^6 cells/ml and loaded onto the Sophion Qube automated patch-clamp system. The extracellular assay buffer contained 145 mM NaCl, 4 mM KCl, 2 mM CaCl2, 1 mM MgCl2, 10 mM HEPES, and 10 mM glucose at pH 7.4. The intracellular assay solution contained 140 mM CsF, 10 mM NaCl, 10 mM EGTA, 10 mM HEPES at pH 7.2. Agonist stock solutions were prepared in H2O and diluted in bath solution prior to use. All antagonists were prepared as 10 mM stock solutions in DMSO and diluted in bath solution prior to use. All experiments were performed under the whole-cell patch clamp configuration at room temperature with 384 individual cells being voltage clamped at −60 mV simultaneously on the Sophion Qube instrument. Two baseline responses were established with the application of α,β-MeATP (800 nM), with the subsequent agonist applications being washed out using extracellular assay buffer containing 0.5 U/ml apyrase. Following the second agonist application, antagonist was incubated in the absence of α,β-MeATP for 10 minutes. After antagonist preincubation, 800 nM α,β-MeATP and antagonist were co-administered to determine the inhibitory effect of the antagonist. One concentration of an antagonist was assessed against a single cell, with different concentrations of the antagonist applied to other cells on the 384 recording substrate. The control P2X3 current amplitude was taken from the peak current amplitude from the second agonist response prior to preincubation with antagonist. The peak P2X3 current amplitude in the presence of antagonist was used to calculate the inhibitory effect at each concentration of the antagonist according to the following equation:
# Percentage inhibition of P2X3=(P2X3 control peak amplitude−P2X3 antagonist peak amplitude)/P2X3 control peak amplitude)*100
# Concentration-response curves were constructed from ten different concentrations with each concentration of antagonist tested on at least two individual cells. The concentration of the antagonist to inhibit P2X3 current by 50% (IC50) was determined by fitting the data with the following equation:
# Y=a+[(b−a)/(1+10^((log c−x)d)]
# Where ‘a’ is minimum response, ‘b’ is maximum response, ‘c’ is IC50 and ‘d’ is Hill slope.
row,SMILES,IC50 [µM]
1,Cc1ccc(CNc2ncnc3c(OCCOCCO)cc(-c4ccc(F)cc4)cc23)nn1 [Example 55],< 0.316
2,"Cc1nnc(C(C)Nc2ncnc3c(OCC(F)F)cc(-c4ccc(F)cn4)cc23)s1 (single isomer, unassigned; enantiomer 2) [Example 7, Single enantiomer 2 of 8-(2,2-difluoroethoxy)-6-(5-fluoro-2-pyridyl)-N-[1-(5-methyl-1,3,4-thiadiazol-2-yl)ethyl]quinazolin-4-amine]",3.16 to 31.6
3,"Cc1ccc([C@@H](C)Nc2ncnc3c(S(=O)(=O)N4CCC(O)CC4)cc(-c4ccc(F)cc4)cc23)nn1 [Example 19, (R)-1-((6-(4-fluorophenyl)-4-((1-(6-methylpyridazin-3-yl)ethyl)amino)quinazolin-8-yl)sulfonyl)piperidin-4-ol]",0.316 to 3.16
4,"Cc1nc([C@@H](C)Nc2ncnc3c(S(=O)(=O)N4CCNCC4)cc(-c4ccc(F)cc4)cc23)no1 [Example 25, (R)-6-(4-fluorophenyl)-N-(1-(5-methyl-1,2,4-oxadiazol-3-yl)ethyl)-8-(piperazin-1-ylsulfonyl)quinazolin-4-amine]",0.316 to 3.16
5,"Cc1ccc([C@@H](C)Nc2ncnc3c([S+]([O-])C4COC4)cc(-c4ccc(F)cc4)cc23)nn1 (stereo partly drawn) [Example 29, 6-(4-fluorophenyl)-N-((R)-1-(6-methylpyridazin-3-yl)ethyl)-8-(oxetan-3-ylsulfinyl)quinazolin-4-amine]",3.16 to 31.6
6,"COC(=O)N1CCC(COc2cc(-c3ccc(F)cc3)cc3c(NCc4ccc(C)nn4)ncnc23)CC1 [Example 64, Methyl 4-[[6-(4-fluorophenyl)-4-[(6-methylpyridazin-3-yl)methylamino]quinazolin-8-yl]oxymethyl]piperidine-1-carboxylate]",0.316 to 3.16
7,"CCOC(=O)[C@H]1CCC[C@H]1NC(=O)COc1cc(-c2ccc(F)cc2)cc2c(NCc3ccc(C)nn3)ncnc12 [Example 46, Ethyl (1S,2R)-2-(2-((6-(4-fluorophenyl)-4-(((6-methylpyridazin-3-yl)methyl)amino)quinazolin-8-yl)oxy)acetamido)cyclopentane-1-carboxylate]",0.316 to 3.16
8,CNS(=O)(=O)c1cc(-c2ccc(F)cc2)cc2c(NC(C)c3nnc(C)s3)ncnc12 (stereo not drawn) [Example 23],0.316 to 3.16
9,"Cc1ccc(CNc2ncnc3c(OC4CCN(C)C4=O)cc(-c4ccc(F)cc4)cc23)nn1 (stereo not drawn) [Example 56, 3-[6-(4-fluorophenyl)-4-[(6-methylpyridazin-3-yl)methylamino]quinazolin-8-yl]oxy-1-methyl-pyrrolidin-2-one]",0.316 to 3.16
10,"Cc1ccc(CNc2ncnc3c(OCC(=O)N[C@H]4CCC[C@H]4C(=O)O)cc(-c4ccc(F)cc4)cc23)nn1 [Example 45, (1R,2S)-2-(2-((6-(4-fluorophenyl)-4-(((6-methylpyridazin-3-yl)methyl)amino)quinazolin-8-yl)oxy)acetamido)cyclopentane-1-carboxylic acid]",< 0.316
11,"Cc1ccc(CNc2ncnc3c(OC4COC4)cc(-c4ccc(F)cc4)cc23)nn1 [Example 63, 6-(4-fluorophenyl)-N-((6-methylpyridazin-3-yl)methyl)-8-(oxetan-3-yloxy)quinazolin-4-amine]",0.316 to 3.16

# More lines, now with the values ahead:
row,IC50 [µM],SMILES
1,0.316 to 3.16,CC(=O)N1CC[C@H](Oc2cc(-c3ccc(F)cc3)cc3c(N[C@H](C)c4cnc(C(F)(F)F)nc4)ncnc23)C1 [Example 31]
2,0.316 to 3.16,"Cc1ccc([C@@H](C)Nc2ncnc3c(OCC(F)F)cc(-c4ccc(F)cn4)cc23)nn1 [Example 5, (R)-8-(2,2-difluoroethoxy)-6-(5-fluoropyridin-2-yl)-N-(1-(6-methylpyridazin-3-yl)ethyl)quinazolin-4-amine]"
3,< 0.316,"C[C@@H](Nc1ncnc2c(OCC(=O)O)cc(-c3ccc(F)cc3)cc12)c1cnc(C(F)(F)F)nc1 [Example 39, (R)-2-((6-(4-fluorophenyl)-4-((1-(2-(trifluoromethyl)pyrimidin-5-yl)ethyl)amino)quinazolin-8-yl)oxy)acetic acid]"
4,< 0.316,Cc1ccc(CNc2ncnc3c(OCC#N)cc(-c4ccc(F)cc4)cc23)nn1 [Example 53]
5,0.316 to 3.16,"C[C@@H](Nc1ncnc2c(OCC3(C(=O)O)CC3)cc(-c3ccc(F)cc3)cc12)c1cnc(C(F)(F)F)nc1 [Example 41, (R)-1-(((6-(4-fluorophenyl)-4-((1-(2-(trifluoromethyl)pyrimidin-5-yl)ethyl)amino)quinazolin-8-yl)oxy)methyl)cyclopropane-1-carboxylic acid]"
6,0.316 to 3.16,"Cc1ccc(CNc2ncnc3c(OCC(=O)NCC(F)(F)F)cc(-c4ccc(F)cc4)cc23)nn1 [Example 61, 2-[6-(4-fluorophenyl)-4-[(6-methylpyridazin-3-yl)methylamino]quinazolin-8-yl]oxy-N-(2,2,2-trifluoroethyl)acetamide]"
7,0.316 to 3.16,"CC(=O)N1CCC(Oc2cc(-c3ccc(F)cc3)cc3c(N[C@H](C)c4cnc(C(F)(F)F)nc4)ncnc23)CC1 [Example 35, (R)-1-(4-((6-(4-fluorophenyl)-4-((1-(2-(trifluoromethyl)pyrimidin-5-yl)ethyl)amino)quinazolin-8-yl)oxy)piperidin-1-yl)ethan-1-one]"
8,0.316 to 3.16,"CSc1cc(-c2ccc(F)cc2)cc2c(N[C@H](C)c3ccc(C)nn3)ncnc12 [Example 26, (R)-6-(4-fluorophenyl)-N-(1-(6-methylpyridazin-3-yl)ethyl)-8-(methylthio)quinazolin-4-amine]"
9,3.16 to 31.6,"Cc1ccc([C@@H](C)Nc2ncnc3c(SC4COC4)cc(-c4ccc(F)cc4)cc23)nn1 [Example 28, (R)-6-(4-fluorophenyl)-N-(1-(6-methylpyridazin-3-yl)ethyl)-8-(oxetan-3-ylthio)quinazolin-4-amine]"
10,0.316 to 3.16,"C[C@@H](Nc1ncnc2c(OCC(=O)NC3(C(=O)O)CC3)cc(-c3ccc(F)cc3)cc12)c1cnc(C(F)(F)F)nc1 [Example 44, (R)-1-(2-((6-(4-fluorophenyl)-4-((1-(2-(trifluoromethyl)pyrimidin-5-yl)ethyl)amino)quinazolin-8-yl)oxy)acetamido)cyclopropane-1-carboxylic acid]"
11,< 0.316,C[C@@H](Nc1ncnc2c(S(=O)(=O)N3CCOCC3)cc(-c3ccc(F)cc3)cc12)c1cnc(C(F)(F)F)nc1 [Example 11]
12,< 0.316,"C[C@@H](Nc1ncnc2c(OCC3(O)COC3)cc(-c3ccc(F)cc3)cc12)c1cnc(C(F)(F)F)nc1 [Example 37, (R)-3-(((6-(4-fluorophenyl)-4-((1-(2-(trifluoromethyl)pyrimidin-5-yl)ethyl)amino)quinazolin-8-yl)oxy)methyl)oxetan-3-ol]"
13,< 0.316,"C[C@@H](Nc1ncnc2c(OCC(=O)NS(=O)(=O)c3ccccc3)cc(-c3ccc(F)cc3)cc12)c1cnc(C(F)(F)F)nc1 [Example 40, (R)-2-((6-(4-fluorophenyl)-4-((1-(2-(trifluoromethyl)pyrimidin-5-yl)ethyl)amino)quinazolin-8-yl)oxy)-N-(phenylsulfonyl)acetamide]"
14,< 0.316,"CON(C)C(=O)COc1cc(-c2ccc(F)cc2)cc2c(NCc3ccc(C)nn3)ncnc12 [Example 54, 2-[6-(4-fluorophenyl)-4-[(6-methylpyridazin-3-yl)methylamino]quinazolin-8-yl]oxy-N-methoxy-N-methyl-acetamide]"
15,0.316 to 3.16,CC(=O)N1CC[C@@H](Oc2cc(-c3ccc(F)cc3)cc3c(N[C@H](C)c4cnc(C(F)(F)F)nc4)ncnc23)C1 [Example 30]
16,< 0.316,"C[C@@H](Nc1ncnc2c(OCc3cc(O)no3)cc(-c3ccc(F)cc3)cc12)c1cnc(C(F)(F)F)nc1 [Example 38, (R)-5-(((6-(4-fluorophenyl)-4-((1-(2-(trifluoromethyl)pyrimidin-5-yl)ethyl)amino)quinazolin-8-yl)oxy)methyl)isoxazol-3-ol]"
